# Results published in US6066642A, “Dihydropyridine-, pyridine-, benzopyran-4-one- and triazoloquinazoline derivative, their preparation and their use as adenosine receptor antagonists” (priority 1998, dated 2000).
# Where two headings read alike, the source gives them in different places.
# Key:
# A2a receptors = biological target: T1, A2a receptors (Rattus norvegicus, UniProt P30543); test: radioligand binding, displacement of specific [3H]CGS 21680 binding in rat striatal membranes; conditions: for inhibition at 100 µM: 10^-4 M; for Ki: [3H]CGS 21680, rat striatal membranes
# T1 construct: Displacement of specific [^3 H]; from tissue; host or cells: rat striatal membranes
# T1 sequence (P30543 whole entry): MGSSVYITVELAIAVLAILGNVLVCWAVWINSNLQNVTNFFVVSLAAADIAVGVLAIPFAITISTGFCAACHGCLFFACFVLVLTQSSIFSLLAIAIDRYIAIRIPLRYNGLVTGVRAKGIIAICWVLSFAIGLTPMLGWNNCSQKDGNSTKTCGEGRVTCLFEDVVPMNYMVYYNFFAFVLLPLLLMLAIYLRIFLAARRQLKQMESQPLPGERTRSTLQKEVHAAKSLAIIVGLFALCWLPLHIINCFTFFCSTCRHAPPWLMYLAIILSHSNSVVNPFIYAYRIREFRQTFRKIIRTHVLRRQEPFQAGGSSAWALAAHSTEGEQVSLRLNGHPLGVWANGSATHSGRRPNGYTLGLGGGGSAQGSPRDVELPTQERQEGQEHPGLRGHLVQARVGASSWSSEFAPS
# Method: ^b Displacement of specific [^3 H]
# or as a percentage of specific binding displaced at 100 μM.
# human A3 receptors = biological target: T2, human A3 receptors (Homo sapiens, UniProt P0DMS8); test: radioligand binding, displacement of specific [125I]AB-MECA binding at human A3 receptors expressed in HEK-293 cells; conditions: for Ki: [125I]AB-MECA, read-out: Ki hA3; for inhibition at 100 µM: 10^-4 M
# T2 construct: expressed in transfected cells; host or cells: HEK-293 cells (membranes)
# T2 sequence (P0DMS8 1-318): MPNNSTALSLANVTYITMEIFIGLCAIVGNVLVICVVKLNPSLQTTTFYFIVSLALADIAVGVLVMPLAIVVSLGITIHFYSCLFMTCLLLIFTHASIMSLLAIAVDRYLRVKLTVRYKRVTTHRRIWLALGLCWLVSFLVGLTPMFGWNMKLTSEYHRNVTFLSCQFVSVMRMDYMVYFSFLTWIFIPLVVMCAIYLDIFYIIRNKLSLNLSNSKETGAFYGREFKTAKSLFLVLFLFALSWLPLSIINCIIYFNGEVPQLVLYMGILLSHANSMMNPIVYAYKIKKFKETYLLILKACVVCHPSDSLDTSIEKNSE
# Method: A3 receptors expressed in HEK293 cells, in membranes, expressed as
# binding displaced at 100 μM.
# A1 receptors = biological target: T3, A1 receptors (Rattus norvegicus, UniProt P25099); test: biochemical; assay type: binding; conditions: for inhibition at 100 µM: 10^-4 M, read-out: displacement of specific binding rA1; for Ki: rat brain membranes
# T3 sequence (P25099 1-326): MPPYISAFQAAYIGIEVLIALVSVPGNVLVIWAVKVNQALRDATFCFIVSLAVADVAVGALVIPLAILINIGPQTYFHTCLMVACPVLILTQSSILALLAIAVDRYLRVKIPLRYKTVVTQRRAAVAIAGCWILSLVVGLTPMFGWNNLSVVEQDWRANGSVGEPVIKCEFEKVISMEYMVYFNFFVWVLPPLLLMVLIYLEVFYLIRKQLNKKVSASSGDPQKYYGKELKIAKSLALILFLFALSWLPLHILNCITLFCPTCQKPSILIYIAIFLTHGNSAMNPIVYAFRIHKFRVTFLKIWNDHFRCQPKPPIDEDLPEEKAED
# Method: ^a Displacement of specific [^3 H] PIA binding in rat brain
# percentage of specific binding displaced at 100 μM.
# rat A3 receptor = biological target: T4, rat A3 receptor (Rattus norvegicus, UniProt P28647); test: A3-agonist-elicited inhibition of adenylyl cyclase in membranes from CHO cells stably expressing the rat A3 receptor; assay type: biochemical; conditions: compound 50 μM, 1 μM forskolin
# T4 construct: expressed in transfected cells; host or cells: CHO cells (membranes)
# T4 sequence (P28647 1-320): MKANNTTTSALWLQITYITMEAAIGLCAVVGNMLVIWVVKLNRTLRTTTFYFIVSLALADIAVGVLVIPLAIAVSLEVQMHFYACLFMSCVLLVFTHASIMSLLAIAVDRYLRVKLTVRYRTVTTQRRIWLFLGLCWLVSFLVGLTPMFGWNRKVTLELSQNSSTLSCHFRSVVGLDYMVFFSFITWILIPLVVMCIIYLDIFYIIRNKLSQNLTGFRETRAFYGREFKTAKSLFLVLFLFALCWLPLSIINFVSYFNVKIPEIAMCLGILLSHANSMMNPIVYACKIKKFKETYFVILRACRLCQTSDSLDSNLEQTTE
# Method: ^a Assayed in membranes from CHO cells stably expressing the rat
# A3 receptor in the presence of 1 μM forskolin.
# [1] = tested on: bak protein in HL-60 cells; test: expression of apoptosis-inducing protein bak by immunofluorescence, HL-60 cells; assay type: cell-based; conditions: 10 nM
# Method: (§1) Cells were fixed as following steps: 10 min with 1% formalin in PBS, 5 min with […] methanol and 2 min with ice cold acetone, then permebilized with 0.1% Nonidet P-40 for 20 min. After the preparation, the specimens were incubated step by step: 10% goat serum in PBS for 20 min, mouse monoclonal anti-bak antibody (5 μg/ml PBS-BSA) for 60 min, Rhodamine (TRITC)-conjugated AffiniPure Goat Anti-mouse IgG (H+L) in PBS-BSA for 60 min. The specimens were washed 3-5 times with PBS after every step. The glass slides were stored at 4° C. in the dark.
# (§2) The mechanism of the apoptosis observed in response to either A3 agonists was investigated.
# [2] = tested on: bak protein in U-937 cells; test: expression of apoptosis-inducing protein bak by immunofluorescence, U-937 cells; assay type: cell-based; conditions: 10 nM
# Method: as §1, §2
# [3] = IB-MECA 10^-6 M, read-out: % Inhibition of adenylyl cyclase, IB-MECA (10^-6 M)
# [4] = IB-MECA 10^-7 M, read-out: % Inhibition of adenylyl cyclase, IB-MECA (10^-7 M)
# [5] = Table 3, [3H]PIA, read-out: Ki rA1
# [6] = Table 7, read-out: displacement of specific binding rA2A
# [7] = Table 7, read-out: displacement of specific binding hA3
# [8] = Table 7, [3H]PIA, read-out: Ki (rA1)
# [9] = Table 15, [3H]PIA, read-out: Ki rA1
structure (smiles),measurement,setting,value
COc1ccc2c(c1)C(=O)[C@H](O)[C@@H](/C=C/c1ccccc1)O2 (relative stereo) [Compound 15],inhibition at 100 µM,"A2a receptors; Table 4, read-out: displacement of specific binding rA2a",< 10%
same,rA1/hA3,human A3 receptors,> 8
same,Ki,"human A3 receptors; Table 4, HEK-293 membranes",21100 nM
same,inhibition at 100 µM,A1 receptors; Table 4,< 10%
same,inhibition at 50 µM,rat A3 receptor; [3],39.2 ± 3%
same,inhibition at 50 µM,rat A3 receptor; [4],25.9 ± 2.4%
"O=c1c(O)c(-c2ccccc2)oc2cc(O)cc(O)c12 [Compound 1, galangin, reference compound]",Ki,"A2a receptors; Table 3, read-out: Ki rA2a",966 ± 164 nM
same,Ki,A1 receptors; [5],863 ± 92 nM
same,inhibition at 50 µM,rat A3 receptor; [3],35.3 ± 7.2%
same,inhibition at 50 µM,rat A3 receptor; [4],23.7 ± 5.1%
"CCOc1cc(OCC)c2c(=O)c(OCC)c(-c3ccccc3)oc2c1 [Compound 3a, 3,5,7-Triethoxyflavone]",Ki,"A2a receptors; Table 3, read-out: Ki rA2a",3310 nM
same,Ki,A1 receptors; [5],603 nM
same,inhibition at 50 µM,rat A3 receptor; [3],19.1 ± 7.4%
same,inhibition at 50 µM,rat A3 receptor; [4],2.2 ± 2.2%
"CCOc1c2ccoc2cc2oc(/C=C/c3ccccc3)cc(=O)c12 [Compound 20, 4-ethyloxy-7-trans-styryl-visnagin]",Ki,"A2a receptors; Table 5, read-out: Ki rA2a",33800 ± 14800 nM
same,Ki,"A1 receptors; Table 5, [3H]PIA, read-out: Ki rA1",35600 ± 12700 nM
same,inhibition at 50 µM,rat A3 receptor; [3],40.9 ± 3.7%
same,inhibition at 50 µM,rat A3 receptor; [4],21.2 ± 3.9%
"COc1cc2c3c(c1)c1cc4c(cc1c(=O)n3CC2)OCO4 [Compound 47, oxogalanthine lactam, reference compound]",inhibition at 100 µM,A2a receptors; [6],< 10%
same,inhibition at 100 µM,human A3 receptors; [7],< 10%
same,Ki,A1 receptors; [8],5550 ± 830 nM
"COC1C=CC23c4cc5c(cc4C[N+](C)(CC2OC(C)=O)C3C1)OCO5 (stereo not shown) [Compound 48, acetylhaemanthine methiodide, reference compound]",inhibition at 100 µM,A2a receptors; [6],< 10%
same,inhibition at 100 µM,human A3 receptors; [7],< 10%
same,Ki,A1 receptors; [8],52500 ± 3700 nM
"Oc1cc2c(cc1O)[C@@H]1c3ccc(O)c(O)c3OC[C@]1(O)C2 [Compound 50, hematoxylin, reference compound]",inhibition at 100 µM,"A2a receptors; Table 7, read-out: % of specific binding displaced rA2A",28 ± 2%
same,inhibition at 100 µM,human A3 receptors; [7],< 10%
same,Ki,A1 receptors; [8],3100 ± 600 nM
"COc1cc2c(c(O)c1OC)c(=O)c1ccccc1n2C [Compound 51, 1-hydroxy-2,3-dimethoxy-10-methyl-9(10H)-acridinone, reference compound]",Ki,"A2a receptors; Table 7, read-out: Ki (rA2A)",6470 ± 1900 nM
same,inhibition at 100 µM,"human A3 receptors; Table 7, read-out: % of specific binding displaced hA3",63 ± 7%
same,Ki,A1 receptors; [8],12700 ± 1200 nM
CCOC(=O)C1=C(C)NC(C)=C(C(=O)OC)C1C#Cc1ccccc1 (stereo not shown) [Compound 76],Ki,"A2a receptors; Table 9, read-out: Ki rA2A",38300 ± 7900 nM
same,Ki,"human A3 receptors; Table 9, HEK membranes",940 ± 700 nM
same,greater affinity for A3 than A1 or A2a adenosine receptors,human A3 receptors; selectivity in words,greater affinity for A3 adenosine receptors than A1 or A2a adenosine receptors
same,Ki,"A1 receptors; Table 9, [3H]PIA, read-out: Ki rA1",5390 ± 330 nM
same,greater affinity to A1 than A2a adenosine receptors,A1 receptors; selectivity in words,greater affinity to A1 adenosine receptors than A2a receptors
CCOC(=O)c1c(C)nc(C)c(C(=O)OC)c1C [Compound 80],Ki,"A2a receptors; Table 10, read-out: Ki rA2a",8960 ± 930 nM
same,Ki,"human A3 receptors; Table 10, HEK membranes",29500 ± 2100 nM
same,Ki,"A1 receptors; Table 10, [3H]PIA, read-out: Ki rA1",6950 ± 2660 nM
"COC(=O)c1c(C)nc(C)c(C(=O)OC)c1-c1ccccc1[N+](=O)[O-] [Compound 82, reference compound]",inhibition at 100 µM,"A2a receptors; Table 10, read-out: displacement of specific binding rA2a",< 10%
same,inhibition at 100 µM,"human A3 receptors; Table 10, read-out: displacement of specific binding hA3",< 10%
same,inhibition at 100 µM,A1 receptors; Table 10,< 10%
"CCC(=O)Nc1nc2ccc(Cl)cc2c2nc(-c3ccco3)nn12 [Compound 146, 9-Chloro-2-(2-furyl)-5-propionylamino[1,2,4]triazolo[1,5-c]quinazoline]",Ki,"A2a receptors; Table 15, read-out: Ki rA2A",106 ± 30 nM
same,Ki,"human A3 receptors; Table 15, HEK membranes",7.66 ± 3.03 nM
same,rA1/hA3,"human A3 receptors; Table 15, ratio of Ki",40
same,rA2A/hA1,"human A3 receptors; Table 15, ratio of Ki",14
same,Ki,A1 receptors; [9],283 ± 42 nM
"CCCC(=O)Nc1nc2ccc(Cl)cc2c2nc(-c3ccco3)nn12 [Compound 147, 5-Butyrylamino-9-chloro-2-(2-furyl)[1,2,4]triazolo[1,5-c]quinazoline]",Ki,"A2a receptors; Table 15, read-out: Ki rA2A",4 nM
same,rA1/hA3,human A3 receptors,2.2
same,Ki,"human A3 receptors; Table 15, HEK membranes",14.6 ± 2.8 nM
same,Ki,A1 receptors; [9],32.5 ± 9.4 nM
"CCCCC(=O)Nc1nc2ccc(Cl)cc2c2nc(-c3ccco3)nn12 [Compound 148, 9-Chloro-2-(2-furyl)-5-pentanoylamino[1,2,4]triazolo[1,5-c]quinazoline]",Ki,"A2a receptors; Table 15, read-out: Ki rA2A",16 nM
same,Ki,"human A3 receptors; Table 15, HEK membranes",21.5 ± 6.2 nM
same,rA1/hA3,"human A3 receptors; Table 15, ratio of Ki",1.3
same,Ki,A1 receptors; [9],28.9 ± 3.7 nM
"CC(C)(C)C(=O)Nc1nc2ccc(Cl)cc2c2nc(-c3ccco3)nn12 [Compound 149, 9-Chloro-2-(2-furyl)-5-trimethylacetylamino[1,2,4]triazolo [1,5-c]quinazoline]",Ki,"A2a receptors; Table 15, read-out: Ki rA2A",60 nM
same,Ki,"human A3 receptors; Table 15, HEK membranes",244 ± 6 nM
same,rA1/hA3,"human A3 receptors; Table 15, ratio of Ki",0.84
same,Ki,A1 receptors; [9],205 ± 20 nM
"O=C(Nc1nc2ccc(Cl)cc2c2nc(-c3ccco3)nn12)c1ccccc1 [Compound 151, 5-Benzoylamino-9-chloro-2-(2-furyl)[1,2,4]triazolo[1,5-c]quinazoline]",Ki,"A2a receptors; Table 15, read-out: Ki rA2A",349 ± 42 nM
same,Ki,"human A3 receptors; Table 15, HEK membranes",4.05 ± 1.39 nM
same,rA1/hA3,"human A3 receptors; Table 15, ratio of Ki",164
same,rA2A/hA1,"human A3 receptors; Table 15, ratio of Ki",86
same,Ki,A1 receptors; [9],665 ± 82 nM
"O=C(Cc1ccccc1)Nc1nc2ccc(Cl)cc2c2nc(-c3ccco3)nn12 [Compound 153, 9-Chloro-2-(2-furyl)-5-phenylacetylamino[1,2,4]triazolo [1,5-c]quinazoline]","expression of bak protein, HL-60",[1],induced
same,Ki,"A2a receptors; Table 15, read-out: Ki rA2A",52 ± 8.8 nM
same,Ki,A1 receptors; [9],305 ± 51 nM
same,"expression of bak protein, U-937",[2],induced
CC(C)(C)OC(=O)NCCCC(=O)Nc1nc2ccc(Cl)cc2c2nc(-c3ccco3)nn12 [Compound 154],Ki,"A2a receptors; Table 15, read-out: Ki rA2A",173 nM
same,Ki,"human A3 receptors; Table 15, HEK membranes",32 nM
same,Ki,A1 receptors; [9],91.3 ± 13.2 nM
NCCCC(=O)Nc1nc2ccc(Cl)cc2c2nc(-c3ccco3)nn12 [Compound 155],Ki,"A2a receptors; Table 15, read-out: Ki rA2A",14 nM
same,Ki,"human A3 receptors; Table 15, HEK membranes",15.2 ± 6.6 nM
same,Ki,A1 receptors; [9],11.3 ± 2.4 nM
O=C(Nc1nc2ccc(Cl)cc2c2nc(-c3ccc(Br)o3)nn12)c1ccccc1 [Compound 156],Ki,"A2a receptors; Table 15, read-out: Ki rA2A",> 1000 nM
same,Ki,"human A3 receptors; Table 15, HEK membranes",856 ± 156 nM
same,Ki,A1 receptors; [9],> 1000 nM
"O=c1[nH]c2ccc(Cl)cc2c2nc(-c3ccco3)nn12 [Compound 158, 9-Chloro-2-(2-furyl)[1,2,4]triazolo[1,5-c]quinazolin-5-(6H)-one]",Ki,"A2a receptors; Table 15, read-out: Ki rA2A",4000 nM
same,Ki,"human A3 receptors; Table 15, HEK membranes",260 ± 87 nM
same,Ki,A1 receptors; [9],3000 nM
O=C(C=Cc1ccccc1)Nc1nc2ccc(Cl)cc2c2nc(-c3ccco3)nn12 [Compound 161],Ki,"A2a receptors; Table 16, read-out: Ki rA2A",59.8 ± 13.4 nM
same,Ki,"human A3 receptors; Table 16, HEK membranes",60 ± 6.3 nM
same,Ki,"A1 receptors; Table 16, [3H]R-PIA, read-out: Ki rA1",282 ± 71 nM
